Assay results as given in patent US20230326554A1, “IDENTIFYING TREATMENT RESPONSE SIGNATURES” (Rutgers, The State University of New Jersey, priority 2022, published 2023).

Key:
Type in all cases: cell-based, human
[1] = tested on: C42B-EnzaRes cells; test: Boyden chamber-based in vitro migration assay; conditions: for cell migration with NME2 knockdown added: C42B-EnzaRes cells with knockdown of NME2
Description: (§1) FIGS. 21A-21F show MYC targeting is beneficial for patients in Enzalutamide-resistant conditions. (FIG. 21A) Drug sensitivity curves of Enzalutamide-naïve, or Enzalutamide-resistant (EnzaRes) C42B cells treated with MYCi975. (FIG. 21B) Colony formation assay using Enzalutamide-resistant (EnzaRes) C42B cells in Intact (treated with DMSO), treated with Enzalutamide (10 μM), MYCi975 (2 μM), or a combination of Enzalutamide+MYCi975 (10 μM+2 μM). Cells were grown in the presence of respective drugs. Representative images are shown. P-value was estimated using a one-tailed Welch t-test. (FIG. 21C) Boyden chamber-based in vitro migration assay using Enzalutamide-resistant (EnzaRes) C42B cells in Intact (treated with DMSO), treated with Enzalutamide (10 μM), MYCi975 (2 μM), or a combination of Enzalutamide+MYCi975 (10 μM+2 μM). Bars represent the quantification of Crystal Violet trapped by migrated cells. P-value was estimated using a one-tailed Welch t-test. (FIG. 21D) Expression of NME2 in Intact and Enzalutamide-resistant (EnzaRes) C42B cells, using the qRT-PCR. P-value was estimated using the one-tailed Welch t-test. (FIG. 21E) Two different siRNAs targeting NME2 were used to downregulate NME2 (left panel) and its effect on MYC expression using qRT-PCR is shown (right panel). (FIG. 21F) Boyden chamber-based in vitro migration assay using Enzalutamide-resistance (EnzaRes) C42B cells in Intact (treated with DMSO) or treated with a combination of Enzalutamide+MYCi975 (10 μM+2 μM) with or without knockdown of NME2. Bars represent the quantification of Crystal Violet trapped by migrated cells. * p-value<0.05, ** p-value≤0.01, *** p-value≤0.001

[2] = tested on: LNCaP cells; test: dose-response cell viability assay; conditions: Enzalutamide-naïve and Enzalutamide-resistant conditions, varying doses, dose-dependent
Description: (§2) FIGS. 22A and 22B show MYC inhibition reduces viability and colony formation in Enzalutamide resistant conditions. (FIG. 22A) Drug response curves of Enzalutamide naïve LNCaP or Enzalutamide-resistant LNCaP cells treated with Enzalutamide and/or MYC-i975. (FIG. 22B) Colony formation assay using Enzalutamide-resistant LNCaP cells t(LNCaP-Enza-Res) in intact (treated with DMSO), treated with enzalutamide (10 μM), MYC-i975 (2 μM), or a combination of Enzalutamide+MYC-i975 (10 μM+2 μM). Cells were grown in the presence of respective drugs. Bars represent quantification of Crystal Violet trapped by migrated cells. P-value is estimated utilizing one-tailed Welch t-test. * p<0.05, *** p≤0.001.
(§3) Generation of Enzalutamide-resistant cell lines: LNCaP (clone FDG) and C42B cells were purchased from ATCC and were grown in RPMI1640 media (GIBCO # 11875093) supplemented with 10% Fetal Bovine Serum (FBS, Corning Cat#35-011-CV) and maintained at […] in and 5% CO2. Enzalutamide powder was purchased from Sellekchem (cat #S1250) and re-suspended in DMSO. Cells were plated in 6 well plates and treated either with DMSO, or with Enzalutamide (20 uM), refreshed every 4 days for up to 3 months until the resistance emerged. RNA from cells was extracted on indicated days using the methods described below. […]

[3] = tested on: C42B cells; test: dose-response cell viability assay; conditions: Enzalutamide-naïve and Enzalutamide-resistant conditions, varying doses, dose-dependent
Description: as §1, with “(FIG. 21E) Two different siRNAs targeting NME2 were used to downregulate NME2 (left panel) and its effect on MYC expression using qRT-PCR is shown (right panel). (FIG. 21F) Boyden chamber-based in vitro migration assay using Enzalutamide-resistance (EnzaRes) C42B cells in Intact (treated with DMSO) or treated with a combination of Enzalutamide+MYCi975 (10 μM+2 μM) with or without knockdown of NME2.” left out, “p-value≤0.001 […]” for “p-value≤0.001”

[4] = tested on: LNCaP-EnzaRes cells; test: colony formation assay; conditions: MYCi975 2 μM, Enzalutamide 10 μM, compared to Intact (DMSO)
Description: as §2, §3

[5] = tested on: C42B-EnzaRes cells; test: colony formation assay; conditions: MYCi975 2 μM, Enzalutamide 10 μM, compared to Intact (DMSO)
Description: as §1, with “(FIG. 21E) Two different siRNAs targeting NME2 were used to downregulate NME2 (left panel) and its effect on MYC expression using qRT-PCR is shown (right panel). (FIG. 21F) Boyden chamber-based in vitro migration assay using Enzalutamide-resistance (EnzaRes) C42B cells in Intact (treated with DMSO) or treated with a combination of Enzalutamide+MYCi975 (10 μM+2 μM) with or without knockdown of NME2.” left out, “p-value≤0.001 […]” for “p-value≤0.001”

[6] = tested on: MYC; test: doxycycline-inducible shRNA knockdown of NME2, Western blot; conditions: C4-2B cells, 0-2000 ng/mL doxycycline for 96 hours
Description: Finally, C4-2B cells expressing doxycycline-inducible shRNA targeting NME2 were generated using the targeting sequence […] (SEQ ID NO: 9). Cells were treated with 0-2000 ng/mL doxycycline for 96 hours and NME2 and MYC expression were evaluated by Western blot.

CNC(=O)c1ccc(N2C(=S)N(c3ccc(C#N)c(C(F)(F)F)c3)C(=O)C2(C)C)cc1F [Enzalutamide]
cell migration with NME2 knockdown added [1]: low metastatic capability

Cn1nc(C(F)(F)F)cc1-c1ccc(OCc2ccc(Cl)cc2)c(-c2ccc(Cl)c(C(F)(F)F)c2)c1O [MYCi975]
cell viability [2]: striking reduction of the cell viability
cell viability [3]: striking reduction of the cell viability
colony formation [4]: reduced the colony formation
colony formation [5]: reduced the colony formation
cell migration with NME2 knockdown added [1]: further reduced
cell migration ([1]; C42B-EnzaRes cells, MYCi975 2 μM, Enzalutamide 10 μM, compared to Intact (DMSO)): significant reduction in cell migration

shRNA targeting NME2: doxycycline-inducible shRNA targeting NME2, targeting sequence GAAATCAGCCTATGGTTTAAG (SEQ ID NO: 9)
MYC expression [6]: suppresses MYC expression
